In experiment [1] the test system is NCI-H2030. Nature of the experiment: Cell proliferation assay (CellTiter-Glo), drug combination synergy by Bliss and ZIP models, NCI-H2030. It is filed as cell-based. The settings on record: combination of compound 1 with KRAS G12C inhibitor (MRTX849, AMG510, ARS-1620 or JDQ-443); for synergy (anti-proliferation effects): NCI-H2030, SMARCA4 low/KRAS G12C, day 7; for Bliss synergy score / ZIP synergy score: NCI-H2030, synergistic effect likely where scores larger than 10. Here is the method: FIG. 2. […] Lung cancer NCI-H2030 cells (SMARAC4 low/KRAS G12C) were treated with KRAS G12C inhibitor (MRTX849, AMG510, ARS1629 or JDQ-443) and with a SMARCA2 degrader (compound 1) in a different dose-range. Cell viability was analyzed on day 7 using Cell-titer Glo.
FIG. 5. Bliss and ZIP synergy scores of H2030 cells treated with a SMARCA2 degrader (compound 1) and a KRAS targeting therapy (MRTX849, AMG510, ARS1629 or JDQ443). Synergistic effect is likely where synergy scores are larger than 10.
(§1) The degree of combination synergy, or antagonism, is quantified by comparing the observed drug combination response against the expected response, calculated using a reference model that assumes no interaction between drugs. Drug synergy was determined using the Bliss and Zero interaction potency (ZIP) reference models.
(§2) The Bliss independence model assumes a stochastic process in which two drugs elicit their effects independently, and the expected combination effect can be calculated based on the probability of independent events; The ZIP model captures the drug interaction relationships by comparing the change in the potency (effect at certain dose level) of the dose-response curves between individual drugs and their combinations. ZIP assumes that two non-interacting drugs are expected to incur minimal changes in their dose-response curves. Model calculations can be found at www.ncbi.nlm.nih.gov/pmc/articles/PMC4759128/.
(§3) Cell proliferation assay: Cells were plated in 384-well white-walled, clear-bottom plates in standard tissue culture conditions. 250 cells per well of the NCI-H2030 (ATCC, CRL-5914) cell line was seeded in RPMI-1640 medium, FBS serum to a final concentration of 10%, 100 cells per well of the UM-UC-3 (ATCC, CRL-1749) cell line was seeded in EMEM medium, FBS serum to a final concentration of 10%. The day after plating, serial dilutions of two compounds were plated in dose-response matrices in quadruplicate, including DMSO controls, using a Tecan D300e Digital Dispenser (Tecan Group Ltd. Männedorf, Switzerland). All wells were normalized to highest total volume of DMSO. 7 days later the CellTiter-Glo® 2.0 Cell Viability Assay (CTG) (#G9242, Promega, Madison, WI) was used to measure cell viability effects of drug combinations. The expected drug combination responses were calculated based on Bliss and ZIP reference model using SynergyFinder (Ianevski et al, 2020). Deviations between observed and expected responses with positive and negative values denote synergy and antagonism respectively. Synergistic effect is likely where synergy scores are larger than 10. MRTX849 (Adagrasib, Catalog No. S8884) and ARS-1620 (Catalog No. S8707) were purchased from Selleck Chemicals. AMG510 (Sotorasib, Catalog No. HY-114277) and JDQ-443 (Catalog No. HY-139612) were purchased from MedChemExpress.
NCI-H2030 is a non-small cell lung cancer cell line that express low SMARCA4 and KRAS G12C mutation. Combination therapy was applied to H2030 cells and % viable cells was calculated (see FIG. 2). Bliss and ZIP scores are larger than 10, which indicates compound 1 and KRAS G12C inhibitors will likely show synergistic effects (FIG. 5).

In experiment [2] the test system is UM-UC-3. The experiment in a line: Cell proliferation assay (CellTiter-Glo), drug combination synergy by Bliss and ZIP models, UM-UC-3. The experiment is classed as cell-based, human. The settings on record: for synergy (anti-proliferation effects): combination of compound 1 with KRAS G12C inhibitor (MRTX849, AMG510, ARS1629 or JDQ443), UM-UC-3, SMARCA4 damaging mutation/KRAS G12C, day 7. Here is the method:
FIG. 3. […] Bladder cancer UM-UC-3 cells (SMARAC4 damaging mutation/KRAS G12C) were treated with KRAS G12C inhibitor (MRTX849, AMG510, ARS1629 or JDQ443) and with a SMARCA2 degrader (compound 1) in a different dose-range. Cell viability was analyzed on day 7 using Cell-titer Glo.
FIG. 6. Bliss and ZIP synergy scores of UM-UC-3 cells treated with a SMARCA2 degrader (compound 1) and a KRAS targeting therapy (MRTX849, AMG510, ARS1629 or JDQ443). Synergistic effect is likely where synergy scores are larger than 10.
as §1, §2, §3
UC-UM-3 is a human bladder transitional cell carcinoma cancer cell line that expresses SMARCA4 damaging mutation and KRAS G12C mutation. Combination therapy was applied to UM-UC-3 cells and % viable cells was calculated (FIG. 3). Bliss and ZIP scores are larger than 10, which indicates compound 1 and KRAS G12C inhibitors will likely show synergistic effects (FIG. 6).
Background: ATP-based viability assays read luminescence as a measure of living cells.

Experiment [3] concerns NCI-H838 cells. The experiment in a line: Cell viability (Cell-titer Glo), drug combination, control line NCI-H838. It is filed as cell-based. The following applies: combination of compound 1 with KRAS G12C inhibitor (MRTX849 or AMG510); NCI-H838, SMARCA4 damaging mutation/KRAS WT; day 7. As to the method: (§4) FIG. 4. […] Lung cancer NCI-H838 cells (SMARAC4 damaging mutation/KRAS WT) or NCI-H358 cells (SMARCA4 WT/KRAS G12C) were treated with KRAS G12C inhibitor (MRTX849 or AMG510) and with a SMARCA2 degrader (compound 1) in a different dose-range. Cell viability was analyzed on day 7 using Cell-titer Glo.
as §3, with “Synergistic effect is likely where synergy scores are larger than 10. MRTX849 (Adagrasib, Catalog No. S8884) and ARS-1620 (Catalog No. S8707) were purchased from Selleck Chemicals. AMG510 (Sotorasib, Catalog No. HY-114277) and JDQ-443 (Catalog No. HY-139612) were purchased from MedChemExpress.” left out

The subject of experiment [4] is NCI-H358 cells. Nature of the experiment: Cell viability (Cell-titer Glo), drug combination, control line NCI-H358. The experiment is classed as cell-based. The following applies: combination of compound 1 with KRAS G12C inhibitor (MRTX849 or AMG510); NCI-H358, SMARCA4 WT/KRAS G12C; day 7. As to the method: as §4
as §3, with “Synergistic effect is likely where synergy scores are larger than 10. MRTX849 (Adagrasib, Catalog No. S8884) and ARS-1620 (Catalog No. S8707) were purchased from Selleck Chemicals. AMG510 (Sotorasib, Catalog No. HY-114277) and JDQ-443 (Catalog No. HY-139612) were purchased from MedChemExpress.” left out

Experiment [5] deals with UM-UC-3 xenograft tumors. The experiment in a line: Tumor volume in mice with UM-UC-3 xenograft tumors. It is filed as in vivo. The following applies: for tumor volume reduction (synergy): combination: compound 1 100 mg/kg s.c. Q3D and MRTX849 10 mg/kg p.o. QD, UM-UC-3. As to the method: FIG. 7. Plot of mean tumor volume vs. dosing time for UM-UC-3 cells treated with a SMARCA2 degrader (compound 1) and a KRAS targeting therapy (MRTX849).
(§5) The concentration of compound 1 was 100 mg/kg s.c. Q3D and the concentration of MRTX849 was 10 mg/kg p.o. QD. Statistical analysis used the two-tailed Mann-Whitney test versus vehicle, with *P<0.05, **P<0.01 and ***P<0.001.

Experiment [6] relates to H2030 xenograft tumors. The experiment in a line: Tumor volume in mice with H2030 xenograft tumors. It is filed as in vivo. The following applies: for tumor volume reduction (synergy): combination: compound 1 100 mg/kg s.c. Q3D and MRTX849 10 mg/kg p.o. QD, H2030. Here is the method: FIG. 8. Plot of mean tumor volume vs. dosing time for H2030 cells treated with a SMARCA2 degrader (compound 1) and a KRAS targeting therapy (MRTX849).
as §5

The mark [7] stands for this setting: combination of compound 1 with KRAS G12C inhibitors, UM-UC-3, synergistic effect likely where scores larger than 10.

The structures appear in SMILES notation. “Also recorded” adds a separate entry of the source.

Turning to `C=CC(=O)N1CCN(c2nc(=O)n(-c3c(C)ccnc3C(C)C)c3nc(-c4c(O)cccc4F)c(F)cc23)[C@@H](C)C1` (atropisomer, axis not shown) [JDQ-443], in experiment [1], the “synergy (anti-proliferation effects)” value is given as “synergistic anti-proliferation effects; also recorded: Excellent synergy”, the Bliss synergy score is > 10 and the ZIP synergy score is > 10. For the same compound, the “synergy (anti-proliferation effects)” value in experiment [2] is given as “synergistic anti-proliferation effects”.
With `C=CC(=O)N1CCN(c2ncnc3c(F)c(-c4c(O)cccc4F)c(Cl)cc23)CC1` [ARS-1620], in experiment [1], the “synergy (anti-proliferation effects)” value is “Excellent synergy”, the Bliss synergy score is > 10 and the ZIP synergy score is on record as > 10. The “synergy (anti-proliferation effects)” value in experiment [1] (listed as ARS1629) was “synergistic anti-proliferation effects”. Further, the “synergy (anti-proliferation effects)” value in experiment [2] was “synergistic anti-proliferation effects”.
As for `Cc1ncsc1-c1ccc([C@H](C)NC(=O)[C@@H]2C[C@@H](O)CN2C(=O)[C@@H](c2cc(O[C@@H](C)CN3CC[C@@H](N4CCN5c6cc(-c7ccccc7O)nnc6NC[C@H]5C4)C3)no2)C(C)C)cc1` [Compound 1], the “synergy (anti-proliferation effects)” value in experiment [1] and in experiment [2] was “synergistic anti-proliferation effects; also recorded: Excellent synergy; also recorded: potent synergistic interaction” each time. In addition, the Bliss synergy score in experiment [1] and in experiment [2] (setting [7]) was > 10 each time. For the same compound, the ZIP synergy score in experiment [1] and in experiment [2] (setting [7]) was > 10 throughout. In addition, the “synergistic effects (cell viability)” value in experiment [3] and in experiment [4] was “do not show synergistic effects” in each case. Besides, the “enlargement of tumor volumes” value in experiment [5] (combination of compound 1 and a KRAS targeting therapy, mice with UM-UC-3 xenograft tumors) is “can slow down the enlargement of tumor volumes”; in experiment [6] (combination of compound 1 and a KRAS targeting therapy, mice with H2030 xenograft tumors) it was “can slow down the enlargement of tumor volumes”. For the same compound, the “tumor volume reduction (synergy)” value in experiment [5] and in experiment [6] was “synergistic effects for tumor volume reduction” each time.
Regarding `C=C(F)C(=O)N1CCN(c2nc(OC[C@@H]3CCCN3C)nc3c2CCN(c2cccc4cccc(Cl)c24)C3)C[C@@H]1CC#N` [MRTX849, adagrasib], the “synergy (anti-proliferation effects)” value in experiment [1] was “synergistic anti-proliferation effects; also recorded: Excellent synergy”; in experiment [2], “synergistic anti-proliferation effects”. In experiment [1], the Bliss synergy score is listed as > 10. Further, in experiment [1], the ZIP synergy score is recorded as > 10. Besides, the “synergistic effects (cell viability)” value in experiment [3] and in experiment [4] was “do not show synergistic effects” throughout. Besides, the “tumor volume reduction (synergy)” value in experiment [5] and in experiment [6] was “synergistic effects for tumor volume reduction” in each case.
